{"source": "patent US20230339916A1", "about": "“PLANT GROWTH REGULATOR COMPOUNDS” (SYNGENTA CROP PROTECTION AG, priority 2020, published 2023)"}
{"tested_on": "Corn leaf discs (variety Multitop)", "assay": "Dark induced senescence of corn leaf", "type": "in vivo", "settings": "Zea mays, foliar, 192 h; corn leaf discs in the dark, 23° C., 75% humidity, 8 days; 100 μM-0.0001 μM, 0.5% DMSO; image analysis; read-out: IC50 (concentration at which 50% senescence was achieved)", "experimental": "Corn plants of variety Multitop were grown in a greenhouse with relative 75% humidity and at 23-25° C. for 6 weeks. 1.4 cm diameter leaf discs were placed into 24-well plates containing test compounds in a concentration gradient (100 μM-0.0001 μM) at a final concentration of 0.5% DMSO. Each concentration was tested in 12 replicates. Plates were sealed with seal foil. The foil was pierced to provide gas exchange in each well. The plates were placed into the completely dark climatic chamber. Plates were incubated in the chamber with 75% humidity and at 23° C. for 8 days. On days 0, 5, 6, 7 and 8 photographs were taken of each plate, and image analysis conducted with a macro developed using the ImageJ software. The image analysis was used to determine the concentration at which 50% senescence was achieved (IC50), see Table 3. The lower the value, the higher senescence induction potency.", "units": {"IC50": "nM"}}
{"smiles": "CC1=CC(O/C=C(/C#N)n2ncc3ccccc32)OC1=O", "note": "(stereo not shown) [Compound I-43-Z, (Z)-2-indazol-1-yl-3-[(4-methyl-5-oxo-2H-furan-2-yl)oxy]prop-2-enenitrile]", "IC50": "< 3000"}
{"smiles": "CCOC(=O)/C(=C/OC1C=C(C)C(=O)O1)n1ccc2ccccc21", "note": "(stereo not shown) [Compound I-1-Z, ethyl (Z)-2-indol-1-yl-3-[(4-methyl-5-oxo-2H-furan-2-yl)oxy]prop-2-enoate]", "IC50": "< 3000"}
{"smiles": "CNC(=O)/C(=C/OC1C=C(C)C(=O)O1)n1cc(C#N)c2ccccc21", "note": "(stereo not shown) [Compound I-82-Z, (Z)-2-(3-cyanoindol-1-yl)-N-methyl-3-[(4-methyl-5-oxo-2H-furan-2-yl)oxy]prop-2-enamide]", "IC50": "< 3000"}
{"smiles": "CNC(=O)/C(=C\\OC1C=C(C)C(=O)O1)n1nnc2ccccc21", "note": "(stereo not shown) [Compound I-33-E, (E)-2-(benzotriazol-1-yl)-N-methyl-3-[(4-methyl-5-oxo-2H-furan-2-yl)oxy]prop-2-enamide]", "IC50": "< 3000"}
{"smiles": "CCOC(=O)/C(=C/OC1C=C(C)C(=O)O1)n1ccc2cc(C(F)(F)F)ccc21", "note": "(stereo not shown) [Compound I-2-Z, ethyl (Z)-3-[(4-methyl-5-oxo-2H-furan-2-yl)oxy]-2-[5-(trifluoromethyl)indol-1-yl]prop-2-enoate]", "IC50": "< 3000"}
{"smiles": "CCOC(=O)/C(=C/OC1OC(=O)C(C)=C1C)n1nnc2ccccc21", "note": "(stereo not shown) [Compound I-35-Z, ethyl (Z)-2-(benzotriazol-1-yl)-3-[(3,4-dimethyl-5-oxo-2H-furan-2-yl)oxy]prop-2-enoate]", "IC50": "< 3000"}
{"smiles": "CCOC(=O)/C(=C/OC1OC(=O)C(C)=C1C)n1ccc2ccccc21", "note": "(stereo not shown) [Compound I-7-Z, ethyl (Z)-3-[(3,4-dimethyl-5-oxo-2H-furan-2-yl)oxy]-2-indol-1-yl-prop-2-enoate]", "IC50": "< 3000"}
{"smiles": "CC1=C(C)C(O/C=C(/C#N)n2ncc3ccccc32)OC1=O", "note": "(stereo not shown) [Compound I-47-Z, (Z)-3-[(3,4-dimethyl-5-oxo-2H-furan-2-yl)oxy]-2-indazol-1-yl-prop-2-enenitrile]", "IC50": "< 3000"}
{"smiles": "CCOC(=O)/C(=C/OC1C=C(C)C(=O)O1)n1cc(C)c2ccccc21", "note": "(stereo not shown) [Compound I-27-Z, ethyl (Z)-2-(3-methylindol-1-yl)-3-[(4-methyl-5-oxo-2H-furan-2-yl)oxy]prop-2-enoate]", "IC50": "< 3000"}
{"smiles": "CCOC(=O)/C(=C/OC1OC(=O)C(C)=C1C)N1CCc2cc(Br)ccc21", "note": "(stereo not shown) [Compound I-73-Z, ethyl (Z)-2-(5-bromoindolin-1-yl)-3-[(3,4-dimethyl-5-oxo-2H-furan-2-yl)oxy]prop-2-enoate]", "IC50": "< 3000"}
{"smiles": "CCOC(=O)/C(=C/OC1OC(=O)C(C)=C1C)n1cnc2c(N(C)C)nc(F)nc21", "note": "(stereo not shown) [Compound I-61-Z, ethyl (Z)-2-[6-(dimethylamino)-2-fluoro-purin-9-yl]-3-[(3,4-dimethyl-5-oxo-2H-furan-2-yl)oxy]prop-2-enoate]", "IC50": "< 3000"}
{"smiles": "CCOC(=O)/C(=C/OC1OC(=O)C(C)=C1OC)n1cc(C#N)c2ccccc21", "note": "(stereo not shown) [Compound I-88-Z, ethyl (Z)-2-(3-cyanoindol-1-yl)-3-[(3-methoxy-4-methyl-5-oxo-2H-furan-2-yl)oxy]prop-2-enoate]", "IC50": "< 3000"}
{"smiles": "CCOC(=O)/C(=C/OC1OC(=O)C(C)=C1C)n1ccc2cc(C(F)(F)F)ccc21", "note": "(stereo not shown) [Compound I-8-Z, ethyl (Z)-3-[(3,4-dimethyl-5-oxo-2H-furan-2-yl)oxy]-2-[5-(trifluoromethyl)indol-1-yl]prop-2-enoate]", "IC50": "< 3000"}
{"smiles": "CCOC(=O)/C(=C/OC1C=C(C)C(=O)O1)n1nc(C)c(C)c1C", "note": "(stereo not shown) [Compound I-80-Z, ethyl (Z)-3-[(4-methyl-5-oxo-2H-furan-2-yl)oxy]-2-(3,4,5-trimethylpyrazol-1-yl)prop-2-enoate]", "IC50": "< 3000"}
{"smiles": "CNC(=O)/C(=C/OC1OC(=O)C(C)=C1C)n1cc(C#N)c2ccccc21", "note": "(stereo not shown) [Compound I-83-Z, (Z)-2-(3-cyanoindol-1-yl)-3-[(3,4-dimethyl-5-oxo-2H-furan-2-yl)oxy]-N-methyl-prop-2-enamide]", "IC50": "< 3000"}
{"smiles": "CCOC(=O)/C(=C/OC1OC(=O)C(C)=C1C)n1ncc2ccccc21", "note": "(stereo not shown) [Compound I-46-Z, ethyl (Z)-3-[(3,4-dimethyl-5-oxo-2H-furan-2-yl)oxy]-2-indazol-1-yl-prop-2-enoate]", "IC50": "< 3000"}
{"smiles": "CNC(=O)/C(=C/OC1OC(=O)C(C)=C1C)n1nnc2ccccc21", "note": "(stereo not shown) [Compound I-37-Z, (Z)-2-(benzotriazol-1-yl)-3-[(3,4-dimethyl-5-oxo-2H-furan-2-yl)oxy]-N-methyl-prop-2-enamide]", "IC50": "< 3000"}
{"smiles": "CCOC(=O)/C(=C/OC1OC(=O)C(C)=C1C)n1nc(F)c2ccccc21", "note": "(stereo not shown) [Compound I-51-Z, ethyl (Z)-3-[(3,4-dimethyl-5-oxo-2H-furan-2-yl)oxy]-2-(3-fluoroindazol-1-yl)prop-2-enoate]", "IC50": "< 3000"}
{"smiles": "CC1=CC(O/C=C(/C(=O)N(C)C)n2cc(C#N)c3ccccc32)OC1=O", "note": "(stereo not shown) [Compound I-86-Z, (Z)-2-(3-cyanoindol-1-yl)-N,N-dimethyl-3-[(4-methyl-5-oxo-2H-furan-2-yl)oxy]prop-2-enamide]", "IC50": "< 3000"}
{"smiles": "CCOC(=O)/C(=C/OC1C=C(C)C(=O)O1)N1C(=O)CSc2ccccc21", "note": "(stereo not shown) [Compound I-78-Z, ethyl (Z)-3-[(4-methyl-5-oxo-2H-furan-2-yl)oxy]-2-(3-oxo-1,4-benzothiazin-4-yl)prop-2-enoate]", "IC50": "< 3000"}
{"smiles": "CCOC(=O)/C(=C/OC1C=C(C)C(=O)O1)n1ccc2cncnc21", "note": "(stereo not shown) [Compound I-62-Z, ethyl (Z)-3-[(4-methyl-5-oxo-2H-furan-2-yl)oxy]-2-pyrrolo[2,3-d]pyrimidin-7-yl-prop-2-enoate]", "IC50": "< 3000"}
{"smiles": "CCOC(=O)/C(=C/OC1OC(=O)C(C)=C1C)N1C(=O)CSc2ccccc21", "note": "(stereo not shown) [Compound I-79-Z, ethyl (Z)-3-[(3,4-dimethyl-5-oxo-2H-furan-2-yl)oxy]-2-(3-oxo-1,4-benzothiazin-4-yl)prop-2-enoate]", "IC50": "< 3000"}
{"smiles": "CCOC(=O)/C(=C/OC1OC(=O)C(C)=C1C)n1ccc2nccnc21", "note": "(stereo not shown) [Compound I-90-Z, ethyl (Z)-3-[(3,4-dimethyl-5-oxo-2H-furan-2-yl)oxy]-2-pyrrolo[2,3-b]pyrazin-5-yl-prop-2-enoate]", "IC50": "< 3000"}
{"smiles": "CCOC(=O)/C(=C/OC1C=C(C)C(=O)O1)n1ncc2ccccc21", "note": "(stereo not shown) [Compound I-42-Z, ethyl (Z)-2-indazol-1-yl-3-[(4-methyl-5-oxo-2H-furan-2-yl)oxy]prop-2-enoate]", "IC50": "< 3000"}
{"smiles": "CCOC(=O)/C(=C/OC1C=C(C)C(=O)O1)n1cc(C#N)c2ccccc21", "note": "(stereo not shown) [Compound I-25-Z, ethyl (Z)-2-(3-cyanoindol-1-yl)-3-[(4-methyl-5-oxo-2H-furan-2-yl)oxy]prop-2-enoate]", "IC50": "< 3000"}
{"smiles": "CCOC(=O)/C(=C/OC1OC(=O)C(C)=C1C)n1nc(C)c(C)c1C", "note": "(stereo not shown) [Compound I-81-Z, ethyl (Z)-3-[(3,4-dimethyl-5-oxo-2H-furan-2-yl)oxy]-2-(3,4,5-trimethylpyrazol-1-yl)prop-2-enoate]", "IC50": "< 3000"}
{"smiles": "CCOC(=O)/C(=C/OC1OC(=O)C(C)=C1C)n1cnc2ccccc21", "note": "(stereo not shown) [Compound I-57-Z, ethyl (Z)-2-(benzimidazol-1-yl)-3-[(3,4-dimethyl-5-oxo-2H-furan-2-yl)oxy]prop-2-enoate]", "IC50": "< 3000"}
{"smiles": "CCOC(=O)/C(=C/OC1C=C(C)C(=O)O1)n1nc(F)c2ccccc21", "note": "(stereo not shown) [Compound I-50-Z, ethyl (Z)-2-(3-fluoroindazol-1-yl)-3-[(4-methyl-5-oxo-2H-furan-2-yl)oxy]prop-2-enoate]", "IC50": "< 3000"}
{"smiles": "CCOC(=O)/C(=C/OC1C=C(C)C(=O)O1)n1ccc2cc(-c3ccccc3)ccc21", "note": "(stereo not shown) [Compound I-5-Z, ethyl (Z)-3-[(4-methyl-5-oxo-2H-furan-2-yl)oxy]-2-(5-phenylindol-1-yl)prop-2-enoate]", "IC50": "< 3000"}
{"smiles": "CCOC(=O)/C(=C/OC1OC(=O)C(C)=C1C)n1ccc2cc(F)ccc21", "note": "(stereo not shown) [Compound I-9-Z, ethyl (Z)-3-[(3,4-dimethyl-5-oxo-2H-furan-2-yl)oxy]-2-(5-fluoroindol-1-yl)prop-2-enoate]", "IC50": "< 3000"}
{"smiles": "CCOC(=O)/C(=C/OC1OC(=O)C(C)=C1C)n1cc(C#N)c2ccccc21", "note": "(stereo not shown) [Compound I-26-Z, ethyl (Z)-2-(3-cyanoindol-1-yl)-3-[(3,4-dimethyl-5-oxo-2H-furan-2-yl)oxy]prop-2-enoate]", "IC50": "< 3000"}
{"smiles": "CCOC(=O)/C(=C/OC1C=C(C)C(=O)O1)n1nnc2ccccc21", "note": "(stereo not shown) [Compound I-31-Z, ethyl (Z)-2-(benzotriazol-1-yl)-3-[(4-methyl-5-oxo-2H-furan-2-yl)oxy]prop-2-enoate]", "IC50": "< 3000"}
{"smiles": "CCOC(=O)/C(=C/OC1OC(=O)C(C)=C1C)n1c(=O)oc2ccccc21", "note": "(stereo not shown) [Compound I-69-Z, ethyl (Z)-3-[(3,4-dimethyl-5-oxo-2H-furan-2-yl)oxy]-2-(2-oxo-1,3-benzoxazol-3-yl)prop-2-enoate]", "IC50": "< 3000"}
{"smiles": "CC1=CC(O/C=C(/C(=O)N(C)C)n2nnc3ccccc32)OC1=O", "note": "(stereo not shown) [Compound I-34-Z, (Z)-2-(benzotriazol-1-yl)-N,N-dimethyl-3-[(4-methyl-5-oxo-2H-furan-2-yl)oxy]prop-2-enamide]", "IC50": "< 3000"}
{"smiles": "CCOC(=O)/C(=C/OC1C=C(C)C(=O)O1)N1CCc2ccccc21", "note": "(stereo not shown) [Compound I-70-Z, ethyl (Z)-2-indolin-1-yl-3-[(4-methyl-5-oxo-2H-furan-2-yl)oxy]prop-2-enoate]", "IC50": "< 3000"}
{"smiles": "CCOC(=O)/C(=C/OC1OC(=O)C(C)=C1C)n1ccc2cc(-c3ccccc3)ccc21", "note": "(stereo not shown) [Compound I-11-Z, ethyl (Z)-3-[(3,4-dimethyl-5-oxo-2H-furan-2-yl)oxy]-2-(5-phenylindol-1-yl)prop-2-enoate]", "IC50": "< 3000"}
{"smiles": "CCOC(=O)/C(=C/OC1OC(=O)C(C)=C1C)n1cc(C)c2ccccc21", "note": "(stereo not shown) [Compound I-28-Z, ethyl (Z)-3-[(3,4-dimethyl-5-oxo-2H-furan-2-yl)oxy]-2-(3-methylindol-1-yl)prop-2-enoate]", "IC50": "< 3000"}
